The Kinase Knowledgebase extract (Sharma et al. 2016)

What was measured:
PIK3CA (human) = PIK3CA (human) (UniProt P42336); test: Assessment of PIK3CA Kinase Activity
PIK3CB (Human) = PIK3CB (Human) (UniProt P42338); test: Assessment of PIK3CB Kinase Activity
PIK3CG (human) = PIK3CG (human) (UniProt P48736); test: Assessment of PIK3CG Kinase Activity
[1] = biological target: PIK3CA (human), P42336 [H1047R]; test: Assessment of PIK3CA(H1047R) Kinase Activity
[2] = biological target: PIK3CA (human), P42336 [E545K]; test: Assessment of PIK3CA(E545K) Kinase Activity
PIK3CA (human), P42336 [E545K], sequence (P42336 whole entry E545K, looked up): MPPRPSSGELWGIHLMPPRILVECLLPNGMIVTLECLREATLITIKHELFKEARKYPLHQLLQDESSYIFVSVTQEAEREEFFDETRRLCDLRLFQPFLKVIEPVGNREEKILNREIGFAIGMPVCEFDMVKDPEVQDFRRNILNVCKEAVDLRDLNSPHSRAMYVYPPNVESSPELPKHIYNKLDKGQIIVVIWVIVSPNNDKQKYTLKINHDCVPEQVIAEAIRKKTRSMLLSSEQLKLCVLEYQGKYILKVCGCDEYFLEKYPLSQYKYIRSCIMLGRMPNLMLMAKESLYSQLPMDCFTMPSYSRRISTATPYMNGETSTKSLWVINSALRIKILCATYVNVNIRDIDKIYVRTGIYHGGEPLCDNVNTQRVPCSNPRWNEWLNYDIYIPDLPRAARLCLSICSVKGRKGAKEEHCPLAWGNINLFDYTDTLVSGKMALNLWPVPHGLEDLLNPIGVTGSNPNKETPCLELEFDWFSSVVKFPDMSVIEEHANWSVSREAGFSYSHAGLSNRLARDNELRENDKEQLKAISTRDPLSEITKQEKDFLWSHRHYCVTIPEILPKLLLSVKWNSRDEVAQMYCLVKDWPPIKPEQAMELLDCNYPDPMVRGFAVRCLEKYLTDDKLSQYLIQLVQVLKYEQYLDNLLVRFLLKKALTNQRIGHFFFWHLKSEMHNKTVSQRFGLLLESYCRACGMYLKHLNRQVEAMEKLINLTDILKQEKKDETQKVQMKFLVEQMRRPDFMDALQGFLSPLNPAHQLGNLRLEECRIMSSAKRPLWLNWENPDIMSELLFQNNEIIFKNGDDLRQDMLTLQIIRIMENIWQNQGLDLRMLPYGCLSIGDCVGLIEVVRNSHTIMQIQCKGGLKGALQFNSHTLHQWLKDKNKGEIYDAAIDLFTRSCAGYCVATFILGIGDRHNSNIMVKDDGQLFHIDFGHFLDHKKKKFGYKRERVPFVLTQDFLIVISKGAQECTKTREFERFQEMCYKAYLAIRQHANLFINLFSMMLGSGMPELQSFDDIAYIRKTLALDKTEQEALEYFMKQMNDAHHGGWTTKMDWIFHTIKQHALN

PIK3CA (human), P42336 [H1047R], sequence (P42336 whole entry H1047R, looked up): as the sequence (P42336 whole entry E545K, looked up) above, with K545E, H1047R counted along it
PIK3CG (human), sequence (P48736 whole entry, looked up): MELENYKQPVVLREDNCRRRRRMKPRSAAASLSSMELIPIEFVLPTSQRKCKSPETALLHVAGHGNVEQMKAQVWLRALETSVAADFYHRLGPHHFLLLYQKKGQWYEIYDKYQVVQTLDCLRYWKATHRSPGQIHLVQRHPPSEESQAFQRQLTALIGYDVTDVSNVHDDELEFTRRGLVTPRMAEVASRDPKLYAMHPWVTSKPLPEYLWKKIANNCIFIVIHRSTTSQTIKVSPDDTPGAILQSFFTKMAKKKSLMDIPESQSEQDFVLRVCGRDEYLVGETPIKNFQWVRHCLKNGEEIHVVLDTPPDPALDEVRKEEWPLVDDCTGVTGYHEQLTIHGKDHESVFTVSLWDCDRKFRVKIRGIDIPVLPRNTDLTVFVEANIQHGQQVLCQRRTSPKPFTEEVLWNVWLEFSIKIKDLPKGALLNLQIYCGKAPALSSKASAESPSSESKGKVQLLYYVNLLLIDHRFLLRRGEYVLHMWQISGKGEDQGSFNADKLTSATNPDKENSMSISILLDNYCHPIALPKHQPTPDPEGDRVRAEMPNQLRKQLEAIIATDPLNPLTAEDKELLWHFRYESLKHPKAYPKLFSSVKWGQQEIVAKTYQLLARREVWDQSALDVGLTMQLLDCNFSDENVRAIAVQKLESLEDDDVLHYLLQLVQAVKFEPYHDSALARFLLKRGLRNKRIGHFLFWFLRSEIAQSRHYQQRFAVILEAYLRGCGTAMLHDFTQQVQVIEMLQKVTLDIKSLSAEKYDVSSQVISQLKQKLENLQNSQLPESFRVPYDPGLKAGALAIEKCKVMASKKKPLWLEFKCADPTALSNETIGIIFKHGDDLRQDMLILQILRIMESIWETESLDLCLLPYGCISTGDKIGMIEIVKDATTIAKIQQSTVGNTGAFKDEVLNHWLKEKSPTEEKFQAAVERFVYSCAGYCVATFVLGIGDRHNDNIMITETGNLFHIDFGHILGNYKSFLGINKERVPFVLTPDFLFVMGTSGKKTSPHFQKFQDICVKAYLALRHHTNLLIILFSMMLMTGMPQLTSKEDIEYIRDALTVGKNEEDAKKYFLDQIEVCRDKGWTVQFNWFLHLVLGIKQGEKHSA
PIK3CA (human), sequence (P42336 whole entry, looked up): as the sequence (P42336 whole entry E545K, looked up) above, with K545E counted along it
PIK3CB (Human), sequence (P42338 whole entry, looked up): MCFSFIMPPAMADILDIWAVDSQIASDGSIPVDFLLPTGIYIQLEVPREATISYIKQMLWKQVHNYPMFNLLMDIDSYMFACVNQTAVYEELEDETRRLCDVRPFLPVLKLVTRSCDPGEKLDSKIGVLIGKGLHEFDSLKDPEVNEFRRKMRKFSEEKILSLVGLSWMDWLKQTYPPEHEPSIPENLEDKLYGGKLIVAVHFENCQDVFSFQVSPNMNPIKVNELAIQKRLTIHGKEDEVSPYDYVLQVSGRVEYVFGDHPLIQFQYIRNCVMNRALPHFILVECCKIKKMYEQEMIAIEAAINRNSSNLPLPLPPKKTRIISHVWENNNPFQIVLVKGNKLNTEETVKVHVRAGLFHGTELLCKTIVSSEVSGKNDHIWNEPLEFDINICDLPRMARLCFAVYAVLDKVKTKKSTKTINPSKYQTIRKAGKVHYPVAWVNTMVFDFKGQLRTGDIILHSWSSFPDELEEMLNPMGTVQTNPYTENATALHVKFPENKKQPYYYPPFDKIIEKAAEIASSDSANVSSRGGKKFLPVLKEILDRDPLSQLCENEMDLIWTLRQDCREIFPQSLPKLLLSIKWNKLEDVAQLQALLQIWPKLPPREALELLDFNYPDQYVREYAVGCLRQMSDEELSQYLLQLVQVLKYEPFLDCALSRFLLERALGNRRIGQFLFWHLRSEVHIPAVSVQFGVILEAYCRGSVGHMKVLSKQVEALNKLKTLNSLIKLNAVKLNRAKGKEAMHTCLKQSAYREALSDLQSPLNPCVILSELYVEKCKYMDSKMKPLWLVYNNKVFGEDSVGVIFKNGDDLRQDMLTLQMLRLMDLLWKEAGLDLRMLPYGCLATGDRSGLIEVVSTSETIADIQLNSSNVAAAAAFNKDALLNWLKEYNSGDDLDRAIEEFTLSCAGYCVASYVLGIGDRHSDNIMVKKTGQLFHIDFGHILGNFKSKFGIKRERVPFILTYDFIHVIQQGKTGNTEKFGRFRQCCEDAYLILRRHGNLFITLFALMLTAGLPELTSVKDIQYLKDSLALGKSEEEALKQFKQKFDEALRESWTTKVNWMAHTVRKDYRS

IC50 (PIK3CA (human)) [nM] | Compound | other results
< 50 | CN(C)C(=O)c1ccc(NC(=O)Nc2ccc(-c3nc(N4CCOCC4)c4ccc(-c5ccco5)cc4n3)cc2)cc1 | IC50 (PIK3CB (Human)): < 50 nM; IC50 (PIK3CG (human)): < 500 nM; IC50 [1]: < 50 nM; IC50 [2]: < 50 nM
< 50 | CN(C)C(=O)c1ccc(NC(=O)Nc2ccc(-c3nc(N4CCOCC4)c4ncc(-c5cccc(S(C)(=O)=O)c5)cc4n3)cc2F)cc1 | IC50 (PIK3CB (Human)): 50 to 500 nM; IC50 (PIK3CG (human)): < 500 nM; IC50 [1]: < 50 nM; IC50 [2]: < 50 nM
< 50 | CN(C)C(=O)c1ccc(NC(=O)Nc2ccc(-c3nc(N4CCOCC4)c4ncc(-c5cccc(S(C)(=O)=O)c5)cc4n3)cn2)cc1 | IC50 (PIK3CB (Human)): < 50 nM; IC50 (PIK3CG (human)): < 500 nM; IC50 [1]: < 50 nM; IC50 [2]: < 50 nM
< 50 | CN(C)C(=O)c1ccc(NC(=O)Nc2ccc(-c3nc(N4CCOCC4)c4ccc(-c5cncnc5)cc4n3)cc2)c(F)c1 | IC50 (PIK3CB (Human)): 50 to 500 nM; IC50 (PIK3CG (human)): < 500 nM; IC50 [1]: 50 to 500 nM; IC50 [2]: 50 to 500 nM
< 50 | CN(C)C(=O)c1ccc(NC(=O)Nc2ccc(-c3nc(N4CCOCC4)c4ccc(-c5cncnc5)cc4n3)cc2)cc1 | IC50 [1]: < 50 nM; IC50 [2]: < 50 nM
< 50 | CN(C)C(=O)c1ccc(NC(=O)Nc2ccc(-c3nc(N4CCOCC4)c4cc(F)c(-c5cnn(C)c5)cc4n3)cn2)cc1 | IC50 (PIK3CB (Human)): < 50 nM; IC50 (PIK3CG (human)): < 500 nM; IC50 [1]: < 50 nM; IC50 [2]: < 50 nM
50 to 200 | CN(C)C(=O)c1ccc(NC(=O)Nc2ccc(-c3nc(N4CCOCC4)c4ccc(-c5cccnc5F)cc4n3)cc2)c(F)c1 | IC50 (PIK3CB (Human)): 50 to 500 nM; IC50 [1]: 50 to 500 nM; IC50 [2]: 50 to 500 nM
< 50 | CN(C)C(=O)c1ccc(NC(=O)Nc2ccc(-c3nc(N4CCOCC4)c4cc(F)c(-c5cncc(S(C)(=O)=O)c5)cc4n3)cc2)cc1 | –
< 50 | CN(C)C(=O)c1ccc(NC(=O)Nc2ccc(-c3nc(N4CCOCC4)c4ncc(-c5cncnc5)cc4n3)c(F)c2)cc1 | –
50 to 200 | Cc1ccc(-c2cc3nc(-c4ccc(NC(=O)Nc5ccc(C(=O)N(C)C)cc5)cc4)nc(N4CCOCC4)c3cc2F)o1 | –
< 50 | COc1ncccc1-c1ccc2c(N3CCOCC3)nc(-c3ccc(NC(=O)Nc4ccc(C(=O)N(C)C)cc4)cc3)nc2c1 | –
< 50 | CN(C)[C@H]1CCN(C(=O)c2ccc(NC(=O)Nc3ccc(-c4nc(N5CCOCC5)c5ncc(-c6cccnc6F)cc5n4)cc3F)cc2)C1 | –
50 to 200 | COc1ccc(-c2ccc3c(N4CCOCC4)nc(-c4ccc(NC(=O)Nc5ccc(C(=O)N(C)C)cc5)c(F)c4)nc3c2)cn1 | –
< 50 | Cc1noc(C)c1-c1cnc2c(N3CCOCC3)nc(-c3ccc(NC(=O)Nc4ccc(C(=O)N(C)C)cc4)c(F)c3)nc2c1 | –
50 to 200 | CS(=O)(=O)c1cccc(-c2ccc3c(N4CCOCC4)nc(-c4ccc(NC(=O)Nc5ccc(C(N)=O)cc5)cc4)nc3c2)c1 | –
< 50 | CN(C)[C@H]1CCN(C(=O)c2ccc(NC(=O)Nc3ccc(-c4nc(N5CCOCC5)c5ccc(-c6cncnc6)cc5n4)cc3F)cc2)C1 | –
< 50 | CN(C)C(=O)c1ccc(NC(=O)Nc2ccc(-c3nc(N4CCOCC4)c4ncc(-c5cnc(N)nc5)cc4n3)cc2F)cc1 | –
50 to 200 | CN(C)C(=O)c1ccc(NC(=O)Nc2ccc(-c3nc(N4CCOCC4)c4cccc(-c5cccnc5F)c4n3)cc2)cc1 | –
< 50 | CN(C)CCN(C)C(=O)c1ccc(NC(=O)Nc2ccc(-c3nc(N4CCOCC4)c4ccc(-c5cncnc5)cc4n3)cc2)cc1 | –
< 50 | CN(C)C(=O)c1ccc(NC(=O)Nc2ccc(-c3nc(N4CCOCC4)c4ccc(-c5cccc(S(C)(=O)=O)c5)cc4n3)cc2F)cn1 | –
< 50 | CN(C)C(=O)c1ccc(NC(=O)Nc2ccc(-c3nc(N4CCOCC4)c4ccc(-c5cncc(F)c5)cc4n3)cc2)cc1 | –
< 50 | CN(C)C(=O)c1ccc(NC(=O)Nc2ccc(-c3nc(N4CCOCC4)c4ccc(-c5ccc(CO)o5)cc4n3)cc2)cc1 | –

IC50 (PIK3CA (human)) [nM] | Compound | other results
< 50 | CN1CCN(C(=O)c2ccc(NC(=O)Nc3ccc(-c4nc(N5CCOCC5)c5ccc(-c6ccncc6)cc5n4)cc3)cc2)CC1 | –
50 to 200 | COc1cccc(-c2ccc3c(N4CCOCC4)nc(-c4ccc(NC(=O)Nc5ccc(C(=O)N(C)C)cc5)cc4)nc3c2)c1 | –
< 50 | CN(C)C(=O)c1ccc(NC(=O)Nc2ccc(-c3nc(N4CCOCC4)c4ncc(-c5cncnc5)cc4n3)cc2F)cc1 | –
50 to 200 | COc1ccc2c(N3CCOCC3)nc(-c3ccc(NC(=O)Nc4ccc(C(=O)N(C)C)cc4)c(F)c3)nc2c1 | –
50 to 200 | CN(C)C(=O)c1ccc(NC(=O)Nc2ccc(-c3nc(N4CCOCC4)c4ccc(-c5ccncc5)cc4n3)cc2F)cc1 | –
< 50 | COc1ncc(-c2ccc3c(N4CCOCC4)nc(-c4ccc(NC(=O)Nc5ccc(C(=O)N(C)C)cc5)cc4)nc3c2)cn1 | –
< 50 | CN(C)C(=O)c1ccc(NC(=O)Nc2ccc(-c3nc(N4CCOCC4)c4ccc(-c5cccc(O)c5)cc4n3)cc2)cc1 | –
50 to 200 | CN(C)C(=O)c1ccc(NC(=O)Nc2ccc(-c3nc(N4CCOCC4)c4ccc(-c5cnc(N(C)C)nc5)cc4n3)cc2F)cc1 | –
< 50 | CN(C)C(=O)c1ccc(NC(=O)Nc2ccc(-c3nc(N4CCOCC4)c4ccc(-c5cncc(S(C)(=O)=O)c5)cc4n3)cc2)cc1 | –
< 50 | CN(C)C(=O)c1ccc(NC(=O)Nc2ccc(-c3nc(N4CCOCC4)c4ccc(-c5ccc(CO)o5)cc4n3)cc2F)cc1 | –
< 50 | COc1ncc(-c2cnc3c(N4CCOCC4)nc(-c4ccc(NC(=O)Nc5ccc(C(=O)N(C)C)cc5)c(F)c4)nc3c2)cn1 | –
< 50 | CN(C)CCNC(=O)c1ccc(NC(=O)Nc2ccc(-c3nc(N4CCOCC4)c4ccc(-c5ccco5)cc4n3)cc2)cc1 | –
50 to 200 | CN(C)C(=O)c1ccc(NC(=O)Nc2ccc(-c3nc(N4CCOCC4)c4cccc(-c5cccc(O)c5)c4n3)cc2)cc1 | –
< 50 | COc1ncc(-c2cnc3c(N4CCOCC4)nc(-c4ccc(NC(=O)Nc5ccc(C(=O)N(C)C)cc5)cc4)nc3c2)cn1 | –
< 50 | CN(C)C(=O)c1ccc(NC(=O)Nc2ccc(-c3nc(N4CCOCC4)c4ncc(-c5cncnc5)cc4n3)cc2)cc1 | –
50 to 200 | CN(C)C(=O)c1ccc(NC(=O)Nc2ccc(-c3nc(N4CCOCC4)c4ccc(-c5ccco5)cc4n3)cc2)cc1F | –
50 to 200 | Cc1ccc(-c2cccc3c(N4CCOCC4)nc(-c4ccc(NC(=O)Nc5ccc(C(=O)N(C)C)cc5)cc4)nc23)o1 | –
< 50 | CN(C)C(=O)c1ccc(NC(=O)Nc2ccc(-c3nc(N4CCOCC4)c4ncc(-c5cccnc5)cc4n3)cc2)cc1 | –
< 50 | CN(C)C(=O)c1ccc(NC(=O)Nc2ccc(-c3nc(N4CCOCC4)c4ncc(-c5cccnc5F)cc4n3)cc2)cc1F | –
< 50 | CN(C)C(=O)c1ccc(NC(=O)Nc2ccc(-c3nc(N4CCOCC4)c4ccc(-c5cccc(CO)c5)cc4n3)cc2)cc1 | –
< 50 | CN(C)C(=O)c1ccc(NC(=O)Nc2ccc(-c3nc(N4CCOCC4)c4ccc(-c5cccnc5)cc4n3)cc2)cc1F | –
50 to 200 | CN1CCN(C(=O)c2ccc(NC(=O)Nc3ccc(-c4nc(N5CCOCC5)c5ccc(-c6ccncc6)cc5n4)cc3F)cc2)CC1 | –

IC50 (PIK3CA (human)) [nM] | Compound | other results
< 50 | Cc1ccc(-c2ccc3c(N4CCOCC4)nc(-c4ccc(NC(=O)Nc5ccc(C(=O)N(C)C)cc5)cc4F)nc3c2)cn1 | –
< 50 | CN(C)CCNC(=O)c1ccc(NC(=O)Nc2ccc(-c3nc(N4CCOCC4)c4ccc(-c5cncnc5)cc4n3)cc2F)cc1 | –
< 50 | Cc1ccc(-c2ccc3c(N4CCOCC4)nc(-c4ccc(NC(=O)Nc5ccc(C(=O)N(C)C)nc5)nc4)nc3c2)o1 | –
< 50 | CN(C)C(=O)c1ccc(NC(=O)Nc2ccc(-c3nc(N4CCOCC4)c4ccc(-c5ccc(C(=O)N(C)C)o5)cc4n3)cc2)cc1 | –
50 to 200 | CN(C)C(=O)c1ccc(NC(=O)Nc2ccc(-c3nc(N4CCOCC4)c4ccc(-c5ccoc5)cc4n3)cc2)cc1 | –
50 to 200 | CN(C)C(=O)c1ccc(NC(=O)Nc2cc(F)c(-c3nc(N4CCOCC4)c4ccc(-c5cncnc5)cc4n3)cc2F)cc1 | –
< 50 | CN(C)[C@@H]1CCN(C(=O)c2ccc(NC(=O)Nc3ccc(-c4nc(N5CCOCC5)c5cc(F)c(-c6cccnc6)cc5n4)cc3)cc2)C1 | –
50 to 200 | CN(C)C(=O)c1ccc(NC(=O)Nc2ccc(-c3nc(N4CCOCC4)c4ccc(-c5cncnc5)cc4n3)cc2F)cc1 | –
< 50 | CC(O)c1ccc(-c2cnc3c(N4CCOCC4)nc(-c4ccc(NC(=O)Nc5ccc(C(=O)N(C)C)cc5)c(F)c4)nc3c2)o1 (stereo unspecified) | –
< 50 | CN(C)C(=O)c1ccc(NC(=O)Nc2ccc(-c3nc(N4CCOCC4)c4ccc(-c5ccc(CO)o5)cc4n3)cc2)c(F)c1 | –
< 50 | CN(C)C(=O)c1ccc(NC(=O)Nc2ccc(-c3nc(N4CCOCC4)c4ncc(-c5cnn(C)c5)cc4n3)c(F)c2)cc1 | –
50 to 200 | CC(O)c1ccc(-c2ccc3c(N4CCOCC4)nc(-c4ccc(NC(=O)Nc5ccc(C(=O)N(C)C)cc5)cc4F)nc3c2)o1 (stereo unspecified) | –
< 50 | CC(O)c1ccc(-c2cnc3c(N4CCOCC4)nc(-c4ccc(NC(=O)Nc5ccc(C(=O)N(C)C)cc5)cc4)nc3c2)o1 (stereo unspecified) | –
50 to 200 | Cc1ccc(-c2ccc3c(N4CCOC(C)C4)nc(-c4ccc(NC(=O)Nc5ccc(C(=O)N(C)C)cc5)cc4)nc3c2)o1 (stereo unspecified) | –
< 50 | CC(O)c1ccc(-c2ccc3c(N4CCOCC4)nc(-c4ccc(NC(=O)Nc5ccc(C(=O)N(C)C)cc5)cc4)nc3c2)o1 (stereo unspecified) | –
< 50 | Cc1noc(C)c1-c1ccc2c(N3CCOCC3)nc(-c3ccc(NC(=O)Nc4ccc(C(=O)N(C)C)cc4)c(F)c3)nc2c1 | –
< 50 | CN(C)C(=O)c1ccc(NC(=O)Nc2ccc(-c3nc(N4CCOCC4)c4ccc(-c5ccc(C(C)(C)O)o5)cc4n3)cc2)cc1 | –
< 50 | Cc1ccncc1-c1cnc2c(N3CCOCC3)nc(-c3ccc(NC(=O)Nc4ccc(C(=O)N(C)C)cc4)cc3)nc2c1 | –
50 to 200 | CN(C)C(=O)c1ccc(NC(=O)Nc2ccc(-c3nc(N4CCOCC4)c4ccc(-c5ccco5)cc4n3)cc2F)cc1 | –
< 50 | CC(=O)Nc1cncc(-c2ccc3c(N4CCOCC4)nc(-c4ccc(NC(=O)Nc5ccc(C(=O)N(C)C)cc5)cc4)nc3c2)c1 | –
< 50 | COc1ncc(-c2ccc3c(N4CCOCC4)nc(-c4ccc(NC(=O)Nc5ccc(C(=O)N(C)C)cc5)nc4)nc3c2)cn1 | –
< 50 | CN(C)C(=O)c1ccc(NC(=O)Nc2ccc(-c3nc(N4CCOCC4)c4ncc(-c5ccnnc5)cc4n3)cc2)cc1 | –
